Source: patent publication US9271978B2 (Zenith Epigenetics Corp., priority 2012, dated 2016)

How the values were obtained:
[1] = molecular target: T1, Brd4 bromodomain 1 (BRD4(1)) (Homo sapiens, UniProt O60885); test: Inhibition of tetra-acetylated histone H4 binding to Brd4 bromodomain 1 (TR-FRET); parameters: key: Active: Compounds with an IC50 value less than 30 μM were deemed to be active.; Not Active: Compounds with an IC50 value less than 30 μM were deemed to be active; conditions: tetra-acetylated histone H4 peptide, active = IC50 <30 μM
T1 construct: Illustrative results with the first bromodomain of Brd4; made in house; host or cells: E. coli BL21 (DE3)
Outline: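 N-terminally His-tagged bromodomains (200 nM), expressed in E. coli, were incubated with biotinylated tetra-acetylated histone H4 peptide (25-50 nM), Eu-cryptate streptavidin and XL665 anti-His antibody in HEPES pH 7.4 buffer with KF, 0.2% DMSO, 2 h at room temperature. Inhibition read as decreased 665/620 nm TR-FRET; IC50 from dose-response curves.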

[2] = test system: c-myc; test: Inhibition of c-myc expression in MV4-11 cells (mRNA, real-time PCR); format: cell-based; parameters: key: Active: Compounds with an IC50 value less than 30 μM were deemed to be active.; Not Active: Compounds with an IC50 value less than 30 μM were deemed to be active; conditions: Human AML MV4-11 cells, 3 h incubation
Outline: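 MV4-11 cells (2.5×10^4) treated with compound or 0.1% DMSO for 3 h at 37 °C. c-myc mRNA measured by RT real-time PCR duplexed with cyclophilin. IC50 from dose–response curve.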

[3] = test system: human AML MV-4-11 (CRL-9591) cells; test: Inhibition of cell proliferation in MV4-11 cells; format: cell-based; parameters: key: Active: Compounds with an IC50 value less than 30 μM were deemed to be active.; Not Active: Compounds with an IC50 value less than 30 μM were deemed to be active; conditions: human AML MV-4-11 cells, 72 h; active = IC50 <30 μM
Outline: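 Exponentially growing MV-4-11 cells (5×10^4/well) were treated immediately with two-fold dilutions of compound from 30 μM to 0.2 μM, in triplicate, for 72 h at 37° C, 5% CO2. Viability was measured by MTS absorbance at 490 nm after 3–4 h. Proliferation relative to DMSO after blank correction gave IC50.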

[4] = test system: hIL-6 mRNA; test: Inhibition of hIL-6 mRNA transcription in U937 cells; format: cell-based, human; parameters: key: Active: Compounds with an IC50 value less than 30 μM were deemed to be active.; Not Active: Compounds with an IC50 value less than 30 μM were deemed to be active; conditions: LPS stimulation, active = IC50 <30 μM
Outline: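 U937 cells differentiated 3 days with 60 ng/mL PMA, pretreated 1 h with compound, then stimulated with 1 ug/mL E. coli LPS for 3 h at 37° C. hIL-6 mRNA quantified by one-step qRT-PCR, Ct normalized to internal control, expressed as fold induction relative to control.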

[5] = test system: ApoA-I mRNA; test: Up-regulation of hApoA-1 mRNA transcription in Huh7 cells; format: cell-based, human; parameters: key: Active: Compounds with an EC170 value less than 30 μM were deemed to be active; conditions: 48 h treatment, ApoA-I mRNA by real-time PCR, Active = EC170 less than 30 μM
Procedure: In this example, ApoA-I mRNA in tissue culture cells was quantitated to measure the transcriptional up-regulation of ApoA-I when treated with a compound of the present disclosure.
Huh7 cells (2.5×10^5 per well) were plated in a 96-well plate using 100 μL DMEM per well, (Gibco DMEM supplemented with penicillin/streptomycin and 10% FBS), 24 h before the addition of the compound of interest. After 48 h treatment, the spent media was removed from the Huh-7 cells and placed on ice (for immediate use) or at −80° C. (for future use) with the “LDH cytotoxicity assay Kit II” from Abcam. The cells remaining in the plate were rinsed with 100 μL PBS.
Then 85 μL of cell lysis solution was added to each well and incubated for 5-10 min at room temperature, to allow for complete cell lysis and detachment. mRNA was then prepared using the “mRNA Catcher PLUS plate” from Life Technologies, according to the protocol supplied. After the last wash, as much wash buffer as possible was aspirated without allowing the wells to dry. Elution Buffer (E3, 80 μL) was then added to each well. mRNA was then eluted by incubating the mRNA Catcher PLUS plate with Elution Buffer for 5 min at 68° C., and then 1 min at 4° C. Catcher plates with mRNA eluted were kept on ice for use or stored at −80° C.
The eluted mRNA isolated was then used in a one-step real-time PCR reaction, using components of the Ultra Sense Kit together with Life Technologies primer-probe mixes. Real-time PCR data was analyzed, using the Ct values, to determine the fold induction of each unknown sample, relative to the control (that is, relative to the control for each independent DMSO concentration).
Compounds with an EC170 value less than 30 μM were deemed to be active.

Row | Compound | FRET activity (IC50 <30 μM) BRD4(1) [1] | c-myc activity (IC50 <30 μM) [2] | Cell Proliferation activity (IC50 <30 μM) [3] | IL-6 activity (IC50 <30 μM) [4] | ApoA-1 activity (EC170 <30 μM) [5]
1 | CN1CCN(c2ccc(=O)n(Cc3ccccc3)n2)CC1=O [Example 179, 2-benzyl-6-(4-methyl-3-oxopiperazin-1-yl)pyridazin-3(2H)-one] | Active | Active | Active | Active | Active
2 | Cc1noc(C)c1-c1cc(NC2CCCC2)c(=O)n(Cc2ccccc2)c1 [Example 208, 1-benzyl-3-(cyclopentylamino)-5-(3,5-dimethylisoxazol-4-yl)pyridin-2(1H)-one] | Active | Active | Active | Active | Active
3 | Cc1noc(C)c1-c1cc(Nc2cccnc2)c(=O)n(Cc2ccccc2)c1 [Example 194, 1-benzyl-5-(3,5-dimethylisoxazol-4-yl)-3-(pyridin-3-ylamino)pyridin-2(1H)-one] | Active | Active | Active | Active | Active
4 | Cc1noc(C)c1-c1cc(N2CCOCC2)c(=O)n(Cc2ccccc2)c1 [Example 190, 1-benzyl-5-(3,5-dimethylisoxazol-4-yl)-3-morpholinopyridin-2(1H)-one] | Active | Active | Active | Not Active | Active
5 | Cc1noc(C)c1-c1cc(N)c(=O)n(Cc2ccc(OC(F)(F)F)cc2)c1 [Example 226, 3-amino-5-(3,5-dimethylisoxazol-4-yl)-1-(4-(trifluoromethoxy)benzyl)pyridin-2(1H)-one] | Active | Active | Active | Active | Active
6 | Cc1onc(CO)c1-c1cc(N)c(=O)n(Cc2ccc(Cl)cc2)c1 [Example 205, 3-Amino-1-(4-chlorobenzyl)-5-(3-(hydroxymethyl)-5-methylisoxazol-4-yl)pyridin-2(1H)-one] | Active | Active | Active | Active | Active
7 | Cc1noc(C)c1-c1cc(OCc2ccccc2)c(=O)n(Cc2ccccc2)c1 [Example 191, 1-benzyl-3-(benzyloxy)-5-(3,5-dimethylisoxazol-4-yl)pyridin-2(1H)-one] | Active | Active | Active | Not Active | Active
8 | Cc1noc(C)c1-c1cc(N)c(=O)n(Cc2ccc(Cl)cc2)n1 [Example 233, 4-amino-2-(4-chlorobenzyl)-6-(3,5-dimethylisoxazol-4-yl)pyridazin-3(2H)-one] | Active | Active | Active | Active | Active
9 | Cc1noc(C)c1-c1cc(O)c(=O)n(Cc2ccccc2)c1 [Example 209, 1-benzyl-5-(3,5-dimethylisoxazol-4-yl)-3-hydroxypyridin-2(1H)-one] | Active | Active | Active | Active | Active
10 | Cc1noc(C)c1-c1cc(N)c(=O)n(Cc2ccc(C(F)(F)F)cc2)c1 [Example 228, 3-amino-5-(3,5-dimethylisoxazol-4-yl)-1-(4-(trifluoromethyl)benzyl)pyridin-2(1H)-one] | Active | Active | Active | Active | Active

The next lines start with results.

Row | FRET activity (IC50 <30 μM) BRD4(1) [1] | c-myc activity (IC50 <30 μM) [2] | Cell Proliferation activity (IC50 <30 μM) [3] | IL-6 activity (IC50 <30 μM) [4] | Compound | ApoA-1 activity (EC170 <30 μM) [5]
11 | Active | Active | Active | Active | Cc1noc(C)c1-c1cc(N)c(=O)n(Cc2ccc(F)cc2Cl)c1 [Example 207, 3-amino-1-(2-chloro-4-fluorobenzyl)-5-(3,5-dimethylisoxazol-4-yl)pyridin-2(1H)-one] | Active
12 | Active | Active | Active | Active | Cc1noc(C)c1-c1cc(N)c(=O)n(Cc2ccccc2Cl)c1 [Example 227, 3-amino-1-(2-chlorobenzyl)-5-(3,5-dimethylisoxazol-4-yl)pyridin-2(1H)-one] | Active
13 | Active | Active | Active | Active | Cc1noc(C)c1-c1cc(N)c(=O)n(Cc2nccs2)c1 [Example 215, 3-amino-5-(3,5-dimethylisoxazol-4-yl)-1-(thiazol-2-ylmethyl)pyridin-2(1H)-one] | Active
14 | Active | Active | Active | Active | Cc1noc(C)c1-c1cc(N)c(=O)n(Cc2ccc(Cl)s2)c1 [Example 222, 3-amino-1-((5-chlorothiophen-2-yl)methyl)-5-(3,5-dimethylisoxazol-4-yl)pyridin-2(1H)-one] | Active
15 | Active | Active | Active | Active | Cc1noc(C)c1-c1cc(N)c(=O)n(Cc2ccc(Cl)cc2F)c1 [Example 206, 3-amino-1-(4-chloro-2-fluorobenzyl)-5-(3,5-dimethylisoxazol-4-yl)pyridin-2(1H)-one] | Active
16 | Active | Active | Active | Active | Cc1noc(C)c1-c1cc(N)c(=O)n(Cc2ccc(Cl)c(F)c2)c1 [Example 203, 3-amino-1-(4-chloro-3-fluorobenzyl)-5-(3,5-dimethylisoxazol-4-yl)pyridin-2(1H)-one] | Active
17 | Active | Active | Active | Active | COc1ccc(Cn2cc(-c3c(C)noc3C)cc(N)c2=O)cc1 [Example 220, 3-amino-5-(3,5-dimethylisoxazol-4-yl)-1-(4-methoxybenzyl)pyridin-2(1H)-one] | Active
